# Results from patent US10723716B2, “Alpha-helix mimetics as modulators of Abeta self-assembly” (New York University, priority 2016, dated 2020).
# Entries after “also recorded” stand apart in the source; their conditions may differ.
# Experiments:
# Aβ42 [1] = target: T1, Aβ42 (Homo sapiens, UniProt P05067); assay: ThT-based kinetic assay of Aβ42 aggregation; format: biochemical; settings: for factor by which Aβ42 aggregation is delayed (rel. t50): 20 μM Aβ42, equimolar ratio; for effect on Aβ42 oligomerization/fibrillation (ThT): equimolar ratio
# T1 construct: Cleavage of APP results in several Aβ isoforms; The predominant species are Aβ42 and Aβ40; purchased Anaspec (Fremont, Calif., USA)
# Excerpt: The aggregation of Aβ42 was monitored using an established exogenous dye, Thioflavin T (ThT) that intercalates between the amyloid fibers along the perpendicular axis without affecting the kinetics of amyloid formation. (see Wolfe, L. S.; Calabrese, M. F.; Nath, A.; Blaho, D. V.; Miranker, A. D.; Xiong, Y. Proc. Natl. Acad. Sci. U.S.A. 2010, 107, 16863-16868; Levine, H. Protein Sci. 1993, 2, 404-410). A representative ThT-based kinetic assay results are depicted in FIG. 2. The oligomerization reaction of Aβ42 was initiated by diluting a 1 mM stock solution of Aβ42 (in DMSO) to a concentration of 20 μM in phosphate buffer (150 mM KCl, 50 mM NaPi, pH 7.4). Aβ42 fibrillation is a nucleation-dependent polymerization process and is characterized by a sigmoidal curve consisting of a lag phase, an elongation phase, and a plateau phase (FIG. 2a). The kinetic reaction was quantified by extracting t50, which is the time required to reach 50% of the maximum fluorescence that results from fibrillation. Under standard conditions the tso for Aβ42 fibrillation was 2.1±0.2 h (FIG. 2a and FIG. 8).
# (§1) Kinetic assays were conducted on a FlexStation 3 Multi-Mode Microplate reader from Molecular Devices (Sunnyvale, Calif., USA). Experiments were conducted in triplicate in a 96-well plate with a final volume of 200 μL per well. Every measurement was an average of 50 readings. The aggregation of an amyloidogenic peptide (Aβ40, Aβ42, or IAPP) was initiated by the addition of the peptide from a stock solution (in DMSO, 0.5-1 mM) to phosphate buffer. The final concentration of each peptide was different based on their aggregation. The stoichiometry of ThT dye for each peptide was 0.5:1 (ThT:peptide). Peptide aggregation was monitored by ThT fluorescence (λex=445 nm and λem=485 nm). The blank sample contained all the components of the peptide samples except the peptide. The sample data were processed by subtracting the fluorescence of the blank sample. The fluorescence intensity data was then normalized by setting the maximum value to 1.
# (§2) Kinetic assays in the presence of the compounds of the invention were conducted under the same conditions. The small molecules were added from a stock solution (1 mM or 10 mM in DMSO) to keep the final concentration of DMSO less than 1.0% (v/v). Small molecules were added to the wells with ThT and buffer and mixed gently with a pipette before adding the peptide. To keep the conditions identical, an equal amount of DMSO was added to the wells with the peptide-only control reactions.
# (§3) Kinetic profiles were processed using Origin (version 9.1). Kinetic curves were fit using the built-in sigmoidal fit. Each run was fit independently to extract the t50 (time required to reach 50% of the maximum fluorescence intensity). Error bars represent standard deviations from the mean of at least three independent experiments.
# In the delayed addition experiments, where the oligopyridylamides were added at various time points during Aβ amyloid reaction, the conditions were same (as used for the assays where Aβ was preincubated with the oligopyridylamides). The Aβ oligomerization process was initiated by dissolving Aβ into buffer solution and then oligopyridylamides were added to this solution at indicated time points (depend on the assay) at an equimolar ratio.
# [2] = system: Aβ42 mediated toxicity in mouse neuroblastoma (N2a) cells; assay: Aβ42 mediated toxicity in Neuro-2a cells (MTS cell viability); format: cell-based; settings: for rank order for the antagonist activity: Aβ42 mediated cytotoxicity and aggregation, 5 μM, 1:1 (FIG. 26a); for effect on Aβ42 mediated cytotoxicity: equimolar ratio, Neuro-2a cells
# Procedure: Cell viability was determined using a CellTiter 96® AQueous One Solution Cell Proliferation Assay (MTS) kit (Promega), which measures the reduction of the tetrazolium compound MTS (3-(4,5-dimethylthiazol-2-yl)-5-(3-carboxymethoxyphenyl)-2-(4-sulfophenyl)-2H-tetrazolium, inner salt) to soluble formazan by mitochondrial dehydrogenase enzyme in living cells. Formazan can be measured at 490 nm according to the manufacturer's instructions.
# Neuro-2a cells (ATCC® […]) were maintained in serum-containing media [Dulbecco's Modified Eagle's Medium—high glucose (DMEM, Sigma) supplemented with 10% foetal bovine serum (FBS), 4 mM L-Glutamine (Sigma), and 1% penicillin/streptomycin (Sigma)] in 5% CO2 at 37° C. Once the cells reached ˜95% confluence, they were split (using 0.25% trypsin-EDTA, Sigma, St. Louis, USA), seeded at a density of 5×10^3 cells/well in 100 μL complete medium in 96-well plates and cultured for 48 h. Thereafter, the media was removed, the cells washed with phosphate buffered saline (PBS), and 90 μL of serum-free DMEM was added to the wells. A solution (A) containing 50 μM Aβ42 in NaOH (pH 10.5) was prepared and kept on ice, and a solution (B) containing 50 μM of the oligopyridylamide compound, H2O (2.33 μL/well) and 1× and 10×PBS was prepared and kept at room temperature. The solutions were combined, vortexed and 10 μL of this solution immeadiatly added to each well. The final concentrations in the wells were: 5 μM Aβ42, 5 μM oligopyridylamide, 200 μM NaOH, 0.1×PBS and 0.5% (v/v) DMSO.
# (§4) To investigate the toxic effect of the peptide alone on cell viability, solution (B) without the oligopyridylamide compound was mixed with solution (A), while the effect of the oligopyridylamide compound alone was determined by adding solution (A) without peptide to solution (B). The effect of oligopyridylamides on seed-catalyzed Aβ42 aggregation was probed by preparing an additional solution (C) containing 0.5 μM seeds. The volume contributed by solution (C) was taken into account in preparing solution (B). Solution (C) was mixed with solution (B), and the resulting mixture was then added to solution (A) shortly before addition to the wells. To study the effect of oligopyridylamides on the oligomeric states of Aβ42, solution (A) was mixed with solution (B) without inhibitor and incubated at room temperature for 1, 2 or 3 h. Subsequently, 50 μM oligopyridylamides was added to the mixture, which was then immediately added to the cells. After culturing for 72 h in 5% CO2 at 37° C., 20 μL of MTS reagent was added to each well. The MTS reagent was incubated for 2.5 h at 37° C., and absorbance of the soluble formazan product (λ=490 nm) of MTS reduction was measured on a Synergy H1MF Multi-Mode microplate-reader (BioTek, Winooski, Vt., USA), with a reference wavelength of 650 nm to subtract the background. Wells treated with a solution containing serum-free DMEM, 200 μM NaOH, 0.1×PBS and 0.5% (v/v) DMSO served as control. MTS reduction was determined from the ratio of the absorbance of the treated wells to the control wells. Each data point represents an average of four independent quadruplet-well trials.
# Neuro-2a cells = assay: Effect of compound alone on Neuro-2a cell viability; format: cell-based, mouse; settings: matched cytotoxic experimental conditions, no Aβ42
# Procedure: as §4, with “After culturing for 72 h in 5% CO2 at 37° C., 20 μL of MTS reagent was added to each well.” left out
# IAPP = target: T2, IAPP (Homo sapiens, UniProt P10997); assay: ThT-based kinetic assay of IAPP aggregation; format: biochemical; settings: equimolar ratio (IAPP 10 μM, FIG. 25c, 26c, 27m)
# T2 construct: purchased Anaspec (Fremont, Calif., USA)
# T2 sequence (P10997 34-70 limits assumed): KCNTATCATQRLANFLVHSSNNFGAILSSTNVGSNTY
# Procedure: as §1, §2, §3
# [3] = system: IAPP mediated toxicity in rat INS-1 cells; assay: IAPP mediated toxicity in INS-1 cells; format: cell-based; settings: equimolar ratio, rat INS-1 cells
# Aβ42 [4] = target: T1, Aβ42; assay: ThT-based kinetic assay of Aβ42 aggregation; format: biochemical; settings: 5 μM, 1:1 (Ligand:Aβ42); without ligand 100%
# T1 sequence (P05067 672-713 limits assumed): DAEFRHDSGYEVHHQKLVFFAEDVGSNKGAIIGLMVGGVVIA
SMILES,effect on Aβ42 oligomerization/fibrillation (ThT) (Aβ42 [1]),toxicity of compound alone to Neuro-2a cells (Neuro-2a cells),effect on Aβ42 mediated cytotoxicity [2],further results
CCOc1nc(C(=O)Nc2ccc(C(=O)Nc3ccc(C(=O)OC)nc3OCCCN)nc2OCCCN)ccc1[N+](=O)[O-] [ADH-45A],,not toxic,,rank order for the antagonist activity [2]: ADH41>ADH46>ADM-40≥ADM-45A
CCCCCCOc1nc(C(=O)Nc2ccc(C(=O)Nc3ccc(C(=O)OC)nc3OCCCN)nc2OCc2ccccc2)ccc1[N+](=O)[O-] [ADH-52],,not toxic,effective at rescuing cells,
COC(=O)c1ccc(NC(=O)c2ccc([N+](=O)[O-])c(OCCCN)n2)c(OCCCN)n1 [ADH-44],,,,factor by which Aβ42 aggregation is delayed (rel. t50) (Aβ42 [1]): 2.4±0.3
COC(=O)c1ccc(NC(=O)c2ccc(NC(=O)c3ccc([N+](=O)[O-])c(OCc4ccccc4)n3)c(OCC(=O)O)n2)c(OCC(=O)O)n1 [ADH-27],,not toxic,,
CCCCOc1nc(C(=O)Nc2ccc(C(=O)Nc3ccc(C(=O)OC)nc3OCCCN)nc2OCCCN)ccc1[N+](=O)[O-] [ADH-40],,not toxic,,rank order for the antagonist activity [2]: ADH41>ADH46>ADM-40≥ADM-45A
COC(=O)c1ccc([N+](=O)[O-])c(OCCCN)n1 [ADH-3],No noticeable effect,,,
COC(=O)c1ccc(NC(=O)c2ccc(NC(=O)c3ccc([N+](=O)[O-])c(OCC(C)C)n3)c(OCCCN)n2)c(OCCCN)n1 [ADH-46],,,effective at rescuing cells,rank order for the antagonist activity [2]: ADH41>ADH46>ADM-40≥ADM-45A

# More lines, main results first:
effect on Aβ42 oligomerization/fibrillation (ThT) (Aβ42 [1]),SMILES,toxicity of compound alone to Neuro-2a cells (Neuro-2a cells),effect on Aβ42 mediated cytotoxicity [2],further results
effective in blocking,COC(=O)c1ccc(NC(=O)c2ccc(NC(=O)c3ccc([N+](=O)[O-])c(OCCCN)n3)c(OCCCN)n2)c(OCCCN)n1 [ADH-19],,,factor by which Aβ42 aggregation is delayed (rel. t50) (Aβ42 [1]): 3.2±0.3
no effect,COC(=O)c1ccc(NC(=O)c2ccc(NC(=O)c3ccc([N+](=O)[O-])c(OCC(=O)O)n3)c(OCc3ccccc3)n2)c(OCC(=O)O)n1 [ADH-17],not toxic,no effect,effect on IAPP fibrillation / amyloid formation (ThT) (IAPP): completely inhibits; effect on IAPP mediated toxicity [3]: completely inhibits
weak inhibitor,COC(=O)c1ccc(NC(=O)c2ccc(NC(=O)c3ccc([N+](=O)[O-])c(OCCCN)n3)c(OCc3ccccc3)n2)c(OCCCN)n1 [ADH-37],,did not have a noticeable effect,ThT fluorescence intensity of the amyloid reaction (Aβ42 [4]): 74%
No noticeable effect,COC(=O)c1ccc([N+](=O)[O-])c(OC2CCCCC2)n1 [ADH-5],,,
accelerated,COC(=O)c1ccc(NC(=O)c2ccc(NC(=O)c3ccc([N+](=O)[O-])c(OC(C)C)n3)c(OCc3ccccc3)n2)c(OCCCN)n1 [ADH-39],not toxic,effective at inhibiting cytotoxicity; also recorded: effective at rescuing cells; also recorded: equally effective,
effective in blocking,COC(=O)c1ccc(NC(=O)c2ccc([N+](=O)[O-])c(OCc3ccccc3)n2)c(OCCCN)n1 [ADH-43],,,factor by which Aβ42 aggregation is delayed (rel. t50) (Aβ42 [1]): 3.3±0.4
